Experimental data: patent US6737383B1, “Herbicidal oxadiazolidines” (priority 1999, dated 2004)

Columns and labels:
blackgrass = assay: Test B pre/postemergence blackgrass; format: in vivo, Alopecurus myosuroides
Summary of the method: (§1)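 Response is a visual 0-to-10 score relative to untreated plants, where 0 means no effect and 10 means complete control, taken twelve to sixteen days after application. Treatments went onto soil at planting and onto foliage of 1- to 4-leaf plants, using a surfactant-containing non-phytotoxic solvent.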

surinam grass = assay: Test B pre/postemergence surinam grass; format: in vivo, Brachiaria decumbens
Summary of the method: as §1

cocklebur = assay: Test B pre/postemergence cocklebur; format: in vivo, Xanthium strumarium
Summary of the method: as §1

corn = assay: Test B pre/postemergence corn; format: in vivo, Zea mays
Summary of the method: as §1

crabgrass = assay: Test B pre/postemergence crabgrass; format: in vivo, Digitaria sanguinalis
Summary of the method: as §1

giant foxtail = assay: Test B pre/postemergence giant foxtail; format: in vivo, Setaria faberii
Summary of the method: as §1

morningglory = assay: Test B pre/postemergence morningglory; format: in vivo, Ipomoea hederacea
Summary of the method: as §1

pigweed = assay: Test B pre/postemergence pigweed; format: in vivo, Amaranthus retroflexus
Summary of the method: as §1

rape = assay: Test B pre/postemergence rape; format: in vivo, Brassica napus
Summary of the method: as §1

soybean = assay: Test B pre/postemergence soybean; format: in vivo, Glycine max
Summary of the method: as §1

sugar beet = assay: Test B pre/postemergence sugar beet; format: in vivo, Beta vulgaris
Summary of the method: as §1

velvetleaf = assay: Test B pre/postemergence velvetleaf; format: in vivo, Abutilon theophrasti
Summary of the method: as §1

wild oat = assay: Test B pre/postemergence wild oat; format: in vivo, Avena fatua
Summary of the method: as §1

rice = assay: Test B flood test rice; format: in vivo, Oryza sativa
Summary of the method: (§2)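 Read-out is a visual response score from 0 (no effect) to 10 (complete control), assigned by comparison with untreated controls. Treatment was applied at the 2-leaf stage, and plants stayed in the greenhouse for twelve to sixteen days before scoring.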

duck salad = assay: Test B flood test duck salad; format: in vivo, Heteranthera limosa
Summary of the method: as §2

bamyardgrass = assay: Test B flood test barnyardgrass; format: in vivo, Echinochloa crus-galli
Summary of the method: as §2

[1] = Postemergence, Rate 62 g/ha, scale 0 to 10, 0 is no effect, 10 is complete control
[2] = Postemergence, Rate 125 g/ha, scale of 0 to 10 where 0 is no effect and 10 is complete control
[3] = Postemergence, Rate 250 g/ha, scale of 0 to 10, 0 is no effect, 10 is complete control
[4] = Preemergence, Rate 62 g/ha, scale of 0 to 10 where 0 is no effect and 10 is complete control
[5] = Preemergence, Rate 125 g/ha, scale of 0 to 10 where 0 is no effect and 10 is complete control
[6] = Preemergence, Rate 250 g/ha, scale 0 to 10 (0 no effect, 10 complete control)
[7] = Preemergence, Rate 500 g/ha, scale of 0 to 10 where 0 is no effect and 10 is complete control
[8] = Rate 500 g/ha, Postemergence, scale 0 to 10, 0 is no effect, 10 is complete control
[9] = Rate 62 g/ha, flood test species, Pre-emergence, visual evaluation after twelve to sixteen days
[10] = Rate 125 g/ha, under heading Pre-emergence, flood test species, visual evaluation after twelve to sixteen days
[11] = Rate 250 g/ha, Pre-emergence (flood test species), scale 0 to 10, 0 is no effect, 10 is complete control
[12] = Rate 500 g/ha, Pre-emergence section of Table B, 0 to 10 scale (0 no effect, 10 complete control)

CC(C)N(C(=O)n1oc(=O)n(C(C)C)c1=O)c1ccncc1 [Compound 663]
Plant response rating, Blackgrass (blackgrass; [1]): 0 | Blackgrass plant response rating (blackgrass; [2]): 0 | Blackgrass plant response rating (blackgrass; [3]): 0 | Blackgrass plant response rating (blackgrass; [4]): 0 | Blackgrass plant response rating (blackgrass; [5]): 0 | Plant response rating, Blackgrass (blackgrass; [6]): 0 | Plant response rating, Blackgrass (blackgrass; [7]): 0 | Blackgrass plant response rating (blackgrass; [8]): 2 | Plant response rating, B. signalgrass (surinam grass; [1]): 0 | Plant response rating, B. signalgrass (surinam grass; [2]): 0 | B. signalgrass plant response rating (surinam grass; [3]): 0 | B. signalgrass plant response rating (surinam grass; [4]): 0 | B. signalgrass plant response rating (surinam grass; [5]): 0 | Plant response rating, B. signalgrass (surinam grass; [6]): 0 | Plant response rating, B. signalgrass (surinam grass; [7]): 0 | B. signalgrass plant response rating (surinam grass; [8]): 0 | Plant response rating, Cocklebur (cocklebur; [1]): 0 | Cocklebur plant response rating (cocklebur; [2]): 0 | Cocklebur plant response rating (cocklebur; [3]): 0 | Cocklebur plant response rating (cocklebur; [4]): 0 | Cocklebur plant response rating (cocklebur; [5]): 0 | Plant response rating, Cocklebur (cocklebur; [6]): 0 | Plant response rating, Cocklebur (cocklebur; [7]): 0 | Cocklebur plant response rating (cocklebur; [8]): 2 | Plant response rating, Corn (corn; [1]): 0 | Corn plant response rating (corn; [2]): 0 | Corn plant response rating (corn; [3]): 0 | Corn plant response rating (corn; [4]): 0 | Corn plant response rating (corn; [5]): 0 | Plant response rating, Corn (corn; [6]): 0 | Plant response rating, Corn (corn; [7]): 0 | Corn plant response rating (corn; [8]): 0 | Plant response rating, Crabgrass (crabgrass; [1]): 0 | Crabgrass plant response rating (crabgrass; [2]): 0 | Crabgrass plant response rating (crabgrass; [3]): 0 | Crabgrass plant response rating (crabgrass; [4]): 0 | Crabgrass plant response rating (crabgrass; [5]): 0 | Plant response rating, Crabgrass (crabgrass; [6]): 0 | Plant response rating, Crabgrass (crabgrass; [7]): 0 | Crabgrass plant response rating (crabgrass; [8]): 4 | Plant response rating, Giant foxtail (giant foxtail; [1]): 0 | Giant foxtail plant response rating (giant foxtail; [2]): 0 | Giant foxtail plant response rating (giant foxtail; [3]): 0 | Giant foxtail plant response rating (giant foxtail; [4]): 0 | Giant foxtail plant response rating (giant foxtail; [5]): 3 | Plant response rating, Giant foxtail (giant foxtail; [6]): 5 | Plant response rating, Giant foxtail (giant foxtail; [7]): 9 | Giant foxtail plant response rating (giant foxtail; [8]): 4 | Plant response rating, Morningglory (morningglory; [1]): 0 | Morningglory plant response rating (morningglory; [2]): 0 | Morningglory plant response rating (morningglory; [3]): 4 | Morningglory plant response rating (morningglory; [4]): 0 | Morningglory plant response rating (morningglory; [5]): 0 | Plant response rating, Morningglory (morningglory; [6]): 0 | Plant response rating, Morningglory (morningglory; [7]): 7 | Morningglory plant response rating (morningglory; [8]): 4 | Plant response rating, Redroot pigweed (pigweed; [1]): 0 | Redroot pigweed plant response rating (pigweed; [2]): 0 | Redroot pigweed plant response rating (pigweed; [4]): 0 | Redroot pigweed plant response rating (pigweed; [5]): 0 | Plant response rating, Redroot pigweed (pigweed; [6]): 7 | Plant response rating, Redroot pigweed (pigweed; [7]): 7 | Redroot pigweed plant response rating (pigweed; [8]): 0 | Plant response rating, Rape (rape; [1]): 0 | Rape plant response rating (rape; [2]): 0 | Rape plant response rating (rape; [4]): 0 | Rape plant response rating (rape; [5]): 0 | Plant response rating, Rape (rape; [6]): 0 | Plant response rating, Rape (rape; [7]): 4 | Rape plant response rating (rape; [8]): 0 | Soybean plant response rating (soybean; [2]): 0 | Soybean plant response rating (soybean; [4]): 0 | Soybean plant response rating (soybean; [5]): 0 | Plant response rating, Soybean (soybean; [6]): 0 | Plant response rating, Soybean (soybean; [7]): 2 | Plant response rating, Sugarbeets (sugar beet; [1]): 0 | Sugarbeets plant response rating (sugar beet; [2]): 0 | Sugarbeets plant response rating (sugar beet; [4]): 0 | Sugarbeets plant response rating (sugar beet; [5]): 0 | Plant response rating, Sugarbeets (sugar beet; [6]): 0 | Plant response rating, Sugarbeets (sugar beet; [7]): 0 | Sugarbeets plant response rating (sugar beet; [8]): 4 | Plant response rating, Velvetleaf (velvetleaf; [1]): 0 | Velvetleaf plant response rating (velvetleaf; [2]): 0 | Velvetleaf plant response rating (velvetleaf; [4]): 0 | Velvetleaf plant response rating (velvetleaf; [5]): 0 | Plant response rating, Velvetleaf (velvetleaf; [6]): 0 | Plant response rating, Velvetleaf (velvetleaf; [7]): 3 | Velvetleaf plant response rating (velvetleaf; [8]): 2 | Plant response rating, Wild oats (wild oat; [1]): 0 | Wild oats plant response rating (wild oat; [2]): 0 | Wild oats plant response rating (wild oat; [4]): 0 | Wild oats plant response rating (wild oat; [5]): 0 | Plant response rating, Wild oats (wild oat; [6]): 0 | Plant response rating, Wild oats (wild oat; [7]): 0 | Wild oats plant response rating (wild oat; [8]): 0 | Plant response rating, Rice (0 to 10 scale, 0 is no effect, 10 is complete control) (rice; [9]): 0 | Rice plant response rating (0 to 10 scale, 0 is no effect, 10 is complete control) (rice; [10]): 0 | Rice plant response rating (rice; [11]): 0 | Rice plant response rating (rice; [12]): 0 | Plant response rating, Ducksalad (0 to 10 scale, 0 is no effect, 10 is complete control) (duck salad; [9]): 0 | Ducksalad plant response rating (0 to 10 scale, 0 is no effect, 10 is complete control) (duck salad; [10]): 0 | Ducksalad plant response rating (duck salad; [11]): 0 | Ducksalad plant response rating (duck salad; [12]): 0 | Plant response rating, Barnyardgrass (0 to 10 scale, 0 is no effect, 10 is complete control) (bamyardgrass; [9]): 0 | Barnyardgrass plant response rating (0 to 10 scale, 0 is no effect, 10 is complete control) (bamyardgrass; [10]): 0 | Barnyardgrass plant response rating (bamyardgrass; [11]): 0 | Barnyardgrass plant response rating (bamyardgrass; [12]): 0
